{"source": "patent US20230058171A1", "about": "“NEW ORAL PHARMACEUTICAL COMPOSITION FOR CANCER THERAPY” (BOEHRINGER INGELHEIM INTERNATIONAL GMBH, priority 2021, published 2023)", "test_system": "patients with advanced or metastatic solid tumors", "assay": "Trial 1403-0001 Phase Ia dose escalation, Arm B (D1 D8 q4w): adverse events", "assay_type": "in vivo", "details": "Arm B D1 D8 q4w", "method": "The Phase Ia dose escalation part aimed to define the Maximum Tolerated Dose (MTD) and the Recommended Dose for Expansion (RDE) for the MDM2-antagonist of formula I based on safety and tolerability, pharmacokinetics, pharmacodynamics, and preliminary efficacy. The RDE will be further explored in the Phase Ib expansion part of the trial.\nDose levels evaluated in Arm A were 10, 20, 30, 45, 50, 60, and 80 mg. Dose levels evaluated in Arm B (referring to the dose administered on Day 1 and Day 8) were 5, 10, 15, 20, 30, 45, and 60 mg."}
{"smiles": "Cc1c(C(=O)O)ccc2c3n(nc12)[C@@H]1[C@H](C3)N(CC2CC2)[C@@]2(C(=O)Nc3cc(Cl)ccc32)[C@H]1c1cccc(Cl)c1F", "note": "[MDM2-antagonist of formula I, (2′S,3′S,3a'S,10a'S)-6-chloro-3′-(3-chloro-2-fluorophenyl)-1′-(cyclopropylmethyl)-6′-methyl-2-oxo-1,2,3′,3a′,10′,10a′-hexahydro-1′H-spiro[indole-3,2′-pyrrolo[2′,3′:4,5]pyrrolo[1,2-b]indazole]-7′-carboxylic acid]", "values": [{"measurement": "AEs leading to Discontinuation: Dose limiting toxicity, %", "setting": "5 mg", "value": 0, "unit": "%"}, {"measurement": "AEs leading to Discontinuation: Other adverse event, %", "setting": "5 mg", "value": 0, "unit": "%"}, {"measurement": "Patients with Dose limiting toxicity, %", "setting": "5 mg", "value": 0, "unit": "%"}, {"measurement": "Serious AEs: Cogenital Anomaly or Birth Defect, %", "setting": "5 mg", "value": 0, "unit": "%"}, {"measurement": "Serious AEs: Is Life Threatening, %", "setting": "5 mg", "value": 0, "unit": "%"}, {"measurement": "Serious AEs: Other Medically Important Serious Event, %", "setting": "5 mg", "value": 0, "unit": "%"}, {"measurement": "Serious AEs: Persists of Signif. Disability/Incapacity, %", "setting": "5 mg", "value": 0, "unit": "%"}, {"measurement": "Serious AEs: Requires or Prolongs Hospitalization, %", "setting": "5 mg", "value": 0, "unit": "%"}, {"measurement": "Serious AEs: Results in Death, %", "setting": "5 mg", "value": 0, "unit": "%"}, {"measurement": "Subjects with AEs leading to Discontinuation of trial drug, %", "setting": "5 mg", "value": 0, "unit": "%"}, {"measurement": "Subjects with AEs leading to dose reduction of trial drug, %", "setting": "5 mg", "value": 0, "unit": "%"}, {"measurement": "Subjects with any AE, %", "setting": "5 mg", "value": 100, "unit": "%"}, {"measurement": "Subjects with investigator defined drug-related AEs, %", "setting": "5 mg", "value": 33.3, "unit": "%"}, {"measurement": "Subjects with maximum CTC Grade 1, %", "setting": "5 mg", "value": 66.7, "unit": "%"}, {"measurement": "Subjects with maximum CTC Grade 2, %", "setting": "5 mg", "value": 33.3, "unit": "%"}, {"measurement": "Subjects with maximum CTC Grade 3, %", "setting": "5 mg", "value": 0, "unit": "%"}, {"measurement": "Subjects with maximum CTC Grade 4, %", "setting": "5 mg", "value": 0, "unit": "%"}, {"measurement": "Subjects with maximum CTC Grade 5, %", "setting": "5 mg", "value": 0, "unit": "%"}, {"measurement": "Subjects with serious AEs, %", "setting": "5 mg", "value": 0, "unit": "%"}, {"measurement": "AEs leading to Discontinuation: Dose limiting toxicity, %", "setting": "10 mg", "value": 0, "unit": "%"}, {"measurement": "AEs leading to Discontinuation: Other adverse event, %", "setting": "10 mg", "value": 0, "unit": "%"}, {"measurement": "Patients with Dose limiting toxicity, %", "setting": "10 mg", "value": 0, "unit": "%"}, {"measurement": "Serious AEs: Cogenital Anomaly or Birth Defect, %", "setting": "10 mg", "value": 0, "unit": "%"}, {"measurement": "Serious AEs: Is Life Threatening, %", "setting": "10 mg", "value": 0, "unit": "%"}, {"measurement": "Serious AEs: Other Medically Important Serious Event, %", "setting": "10 mg", "value": 0, "unit": "%"}, {"measurement": "Serious AEs: Persists of Signif. Disability/Incapacity, %", "setting": "10 mg", "value": 0, "unit": "%"}, {"measurement": "Serious AEs: Requires or Prolongs Hospitalization, %", "setting": "10 mg", "value": 33.3, "unit": "%"}, {"measurement": "Serious AEs: Results in Death, %", "setting": "10 mg", "value": 0, "unit": "%"}, {"measurement": "Subjects with AEs leading to Discontinuation of trial drug, %", "setting": "10 mg", "value": 0, "unit": "%"}, {"measurement": "Subjects with AEs leading to dose reduction of trial drug, %", "setting": "10 mg", "value": 33.3, "unit": "%"}, {"measurement": "Subjects with any AE, %", "setting": "10 mg", "value": 100, "unit": "%"}, {"measurement": "Subjects with investigator defined drug-related AEs, %", "setting": "10 mg", "value": 100, "unit": "%"}, {"measurement": "Subjects with maximum CTC Grade 1, %", "setting": "10 mg", "value": 0, "unit": "%"}, {"measurement": "Subjects with maximum CTC Grade 2, %", "setting": "10 mg", "value": 33.3, "unit": "%"}, {"measurement": "Subjects with maximum CTC Grade 3, %", "setting": "10 mg", "value": 66.7, "unit": "%"}, {"measurement": "Subjects with maximum CTC Grade 4, %", "setting": "10 mg", "value": 0, "unit": "%"}, {"measurement": "Subjects with maximum CTC Grade 5, %", "setting": "10 mg", "value": 0, "unit": "%"}, {"measurement": "Subjects with serious AEs, %", "setting": "10 mg", "value": 33.3, "unit": "%"}, {"measurement": "AEs leading to Discontinuation: Dose limiting toxicity, %", "setting": "15 mg", "value": 0, "unit": "%"}, {"measurement": "AEs leading to Discontinuation: Other adverse event, %", "setting": "15 mg", "value": 0, "unit": "%"}, {"measurement": "Patients with Dose limiting toxicity, %", "setting": "15 mg", "value": 0, "unit": "%"}, {"measurement": "Serious AEs: Cogenital Anomaly or Birth Defect, %", "setting": "15 mg", "value": 0, "unit": "%"}, {"measurement": "Serious AEs: Is Life Threatening, %", "setting": "15 mg", "value": 0, "unit": "%"}, {"measurement": "Serious AEs: Other Medically Important Serious Event, %", "setting": "15 mg", "value": 0, "unit": "%"}, {"measurement": "Serious AEs: Persists of Signif. Disability/Incapacity, %", "setting": "15 mg", "value": 0, "unit": "%"}, {"measurement": "Serious AEs: Requires or Prolongs Hospitalization, %", "setting": "15 mg", "value": 33.3, "unit": "%"}, {"measurement": "Serious AEs: Results in Death, %", "setting": "15 mg", "value": 0, "unit": "%"}, {"measurement": "Subjects with AEs leading to Discontinuation of trial drug, %", "setting": "15 mg", "value": 0, "unit": "%"}, {"measurement": "Subjects with AEs leading to dose reduction of trial drug, %", "setting": "15 mg", "value": 0, "unit": "%"}, {"measurement": "Subjects with any AE, %", "setting": "15 mg", "value": 100, "unit": "%"}, {"measurement": "Subjects with investigator defined drug-related AEs, %", "setting": "15 mg", "value": 100, "unit": "%"}, {"measurement": "Subjects with maximum CTC Grade 1, %", "setting": "15 mg", "value": 33.3, "unit": "%"}, {"measurement": "Subjects with maximum CTC Grade 2, %", "setting": "15 mg", "value": 66.7, "unit": "%"}, {"measurement": "Subjects with maximum CTC Grade 3, %", "setting": "15 mg", "value": 0, "unit": "%"}, {"measurement": "Subjects with maximum CTC Grade 4, %", "setting": "15 mg", "value": 0, "unit": "%"}, {"measurement": "Subjects with maximum CTC Grade 5, %", "setting": "15 mg", "value": 0, "unit": "%"}, {"measurement": "Subjects with serious AEs, %", "setting": "15 mg", "value": 33.3, "unit": "%"}, {"measurement": "AEs leading to Discontinuation: Dose limiting toxicity, %", "setting": "20 mg", "value": 0, "unit": "%"}, {"measurement": "AEs leading to Discontinuation: Other adverse event, %", "setting": "20 mg", "value": 0, "unit": "%"}, {"measurement": "Patients with Dose limiting toxicity, %", "setting": "20 mg", "value": 0, "unit": "%"}, {"measurement": "Serious AEs: Cogenital Anomaly or Birth Defect, %", "setting": "20 mg", "value": 0, "unit": "%"}, {"measurement": "Serious AEs: Is Life Threatening, %", "setting": "20 mg", "value": 0, "unit": "%"}, {"measurement": "Serious AEs: Other Medically Important Serious Event, %", "setting": "20 mg", "value": 33.3, "unit": "%"}, {"measurement": "Serious AEs: Persists of Signif. Disability/Incapacity, %", "setting": "20 mg", "value": 0, "unit": "%"}, {"measurement": "Serious AEs: Requires or Prolongs Hospitalization, %", "setting": "20 mg", "value": 33.3, "unit": "%"}, {"measurement": "Serious AEs: Results in Death, %", "setting": "20 mg", "value": 0, "unit": "%"}, {"measurement": "Subjects with AEs leading to Discontinuation of trial drug, %", "setting": "20 mg", "value": 0, "unit": "%"}, {"measurement": "Subjects with AEs leading to dose reduction of trial drug, %", "setting": "20 mg", "value": 0, "unit": "%"}, {"measurement": "Subjects with any AE, %", "setting": "20 mg", "value": 100, "unit": "%"}, {"measurement": "Subjects with investigator defined drug-related AEs, %", "setting": "20 mg", "value": 100, "unit": "%"}, {"measurement": "Subjects with maximum CTC Grade 1, %", "setting": "20 mg", "value": 0, "unit": "%"}, {"measurement": "Subjects with maximum CTC Grade 2, %", "setting": "20 mg", "value": 66.7, "unit": "%"}, {"measurement": "Subjects with maximum CTC Grade 3, %", "setting": "20 mg", "value": 33.3, "unit": "%"}, {"measurement": "Subjects with maximum CTC Grade 4, %", "setting": "20 mg", "value": 0, "unit": "%"}, {"measurement": "Subjects with maximum CTC Grade 5, %", "setting": "20 mg", "value": 0, "unit": "%"}, {"measurement": "Subjects with serious AEs, %", "setting": "20 mg", "value": 33.3, "unit": "%"}, {"measurement": "AEs leading to Discontinuation: Dose limiting toxicity, %", "setting": "30 mg", "value": 0, "unit": "%"}, {"measurement": "AEs leading to Discontinuation: Other adverse event, %", "setting": "30 mg", "value": 0, "unit": "%"}, {"measurement": "Patients with Dose limiting toxicity, %", "setting": "30 mg", "value": 0, "unit": "%"}, {"measurement": "Serious AEs: Cogenital Anomaly or Birth Defect, %", "setting": "30 mg", "value": 0, "unit": "%"}, {"measurement": "Serious AEs: Is Life Threatening, %", "setting": "30 mg", "value": 0, "unit": "%"}, {"measurement": "Serious AEs: Other Medically Important Serious Event, %", "setting": "30 mg", "value": 25.0, "unit": "%"}, {"measurement": "Serious AEs: Persists of Signif. Disability/Incapacity, %", "setting": "30 mg", "value": 0, "unit": "%"}, {"measurement": "Serious AEs: Requires or Prolongs Hospitalization, %", "setting": "30 mg", "value": 0, "unit": "%"}, {"measurement": "Serious AEs: Results in Death, %", "setting": "30 mg", "value": 0, "unit": "%"}, {"measurement": "Subjects with AEs leading to Discontinuation of trial drug, %", "setting": "30 mg", "value": 0, "unit": "%"}, {"measurement": "Subjects with AEs leading to dose reduction of trial drug, %", "setting": "30 mg", "value": 50, "unit": "%"}]}
